# Earlier results, collected in patent publication US20140128375A1, “B[…] AS CGRP RECEPTOR ANTAGONISTS” (priority 2006, published 2014).
# Tested on: CGRP
# Conditions: marmoset, electrical stimulation of the trigeminal ganglion
compound,measurement,value
NCCCC[C@H](NC(=O)[C@@H](Cc1cc(Br)c(O)c(Br)c1)NC(=O)N1CCC(N2Cc3ccccc3NC2=O)CC1)C(=O)N1CCN(c2ccncc2)CC1 [BIBN4096BS],effect on increase in facial blood flow,could be blocked
